For data set [1], the system named is normal human epidermal keratinocytes (NHEK). The experiment in a line: Preliminary cytotoxicity assay (WST-8) in keratinocytes. The class given is cell-based. The conditions noted are these: 24 hours treatment, WST-8, ingredient on its own. How it is done: Normal human epidermal keratinocytes (NHEK) were seeded in 24-well plates and placed in culture medium (Keratinocyte-serum free media (SFM) supplemented with Epidermal Growth Factor at concentration 0.025 ug/ml and Pituitary extract at concentration of 0.05 mg/ml) for 24 hours. To determine suitable non-toxic ingredient concentrations, a cytotoxicity assay was first carried out where the NHEKs were treated with ingredients or ingredient blends for 24 hours before being incubated with WST-8 (highly water-soluble tetrazolium salt) which is reduced to a water-soluble orange coloured product (formazan) by viable, living cells and is quantified by optical density measurement at 450 nm using a spectrophotometer (VERSAmax, Molecular Devices). This reduction is proportional to the number of living cells and their metabolic activity
In general terms: Tetrazolium assays rely on reduction of a dye to a coloured formazan, in cell work by metabolically active cells.

Data set [2] has as its system Interleukin-8 (IL-8) mRNA. Nature of the data set: IL-8 mRNA expression by RT-qPCR in NHEK. The class given is cell-based, human. The note with it: 24 hours, used on its own, vs media only control. As to the method: Interleukin 8 is a measurable biomarker for inflammation. The effectiveness of the presently described compositions in reducing inflammation, and promoting skin barrier repair, are assessed by measuring the reduction in the expression of Interleukin-8 (IL-8) in the skin cells tested. Over expression of IL-8 in the epidermis can lead to disruption of epidermal homeostasis i.e. disruption of the skin cell differentiation, proliferation and desquamation processes.
In the present experiment, the effects of compounds were assessed in normal human epidermal keratinocytes (NHEK). More specifically, the effects of these compounds were evaluated using real time polymerase chain reaction (RT-qPCR) technology. […]
IL-8 mRNA expression was analysed using RT-qPCR as part of this array. […] The amount and quality of mRNA was evaluated using capillary electrophoresis with a Bioanalyzer 2100 (Agilent technologies). […] The cDNA quantities were then diluted if necessary, to achieve equal amount of cDNA concentration in each test sample, before carrying out PCR (Polymerase Chain Reaction) using the LightCycler (trade name) system (commercially available from Roche Molecular System Inc.) according to the supplier's instructions. […] The more copies of DNA/cDNA that have been produced through PCR, the more SYBR Green molecules will bind the DNA/cDNA and the higher the level of fluorescence. […]
A general note: Quantitative PCR measures a nucleic acid by following its amplification.

For the compound `NC(=O)c1cccnc1` [Niacinamide, niacinamide], in data set [1], the “maximum concentration usable without causing a loss in viability or death of the epidermal keratinocytes” value turned out to be 500 ppm. The “increase of IL-8 mRNA expression” value in data set [2] worked out at 18%.

Values taken from US20250161201A1, “COSMETIC COMPOSITION” (THE BOOTS COMPANY PLC, priority 2022, published 2025).
